Laboratory results reported in patent publication US12358932B2, “Chemical compounds” (BORAH, INC., priority 2019, dated 2025).

biological target: T1, Recombinant human PDE4B (Homo sapiens, UniProt Q07343); assay: PDE4B Phosphodiesterase Assay; assay type: biochemical; set-up: key to Activity Note: PDE4: The (+) symbols identify a compound of the present disclosure with the noted target activity; +*: The (*) symbols indicate preferential activity, where the greater number identifies the most preferred compounds; +**: The (*) symbols indicate preferential activity, where the greater number identifies the most preferred compounds; +***: The (*) symbols indicate preferential activity, where the greater number identifies the most preferred compounds; settings: compound list; + = noted target activity
T1 construct: aa 305-end; GST (N); made in house; host or cells: Sf9 insect cells (baculovirus)
T1 sequence (Q07343 305-736 limits assumed): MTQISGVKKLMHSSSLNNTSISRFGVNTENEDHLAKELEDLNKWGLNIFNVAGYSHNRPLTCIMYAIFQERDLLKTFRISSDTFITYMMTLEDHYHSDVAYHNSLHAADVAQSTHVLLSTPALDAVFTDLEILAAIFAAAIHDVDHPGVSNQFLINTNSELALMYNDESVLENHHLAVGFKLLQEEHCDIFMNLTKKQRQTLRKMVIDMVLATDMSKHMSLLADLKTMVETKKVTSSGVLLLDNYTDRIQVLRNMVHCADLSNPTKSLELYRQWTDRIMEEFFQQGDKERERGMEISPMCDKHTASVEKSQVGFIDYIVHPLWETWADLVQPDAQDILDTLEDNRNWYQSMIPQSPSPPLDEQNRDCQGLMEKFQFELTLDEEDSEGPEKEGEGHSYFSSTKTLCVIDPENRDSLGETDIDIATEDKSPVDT
Procedure: The assay is based on the fluorescence polarization measuring AMP/GMP production as a result of the enzyme activity by displacement of Tracer binding to the AMP/GMP antibody. • Reaction Buffer: 10 mM Tris-HCl, pH 7.5, 5 mM MgCl2, 0.01% Brij 35, 1 mM DTT and 1% DMSO. • Enzyme: Recombinant human PDE4B (Gene Accession #NM_002600; aa 305-end) was expressed by baculovirus in Sf9 insect cells using an N-terminal GST tag. Mw=78 kDa. • Substrate: 1 μM cAMP • Detection: Transcreener® AMP2/GMP2 Antibody AMP2/GMP2 AlexaFluor 633 Tracer Reaction Procedure: • 1. Prepared indicated enzyme and substrate in freshly prepared Reaction Buffer • 2. Delivered enzyme solution into the reaction well • 3. Delivered compounds in 100% DMSO into the enzyme solution by Acoustic technology (Echo550; nanoliter range), incubated for 10 min at room temperature • 4. Delivered substrate solution into the reaction well to initiate the reaction • 5. Incubated for 1 h at room temperature • 6. Added detection mixture (Tracer and antibody in the stop buffer) to stop the reaction and incubated for 90 min with gentle mixing. The fluorescence polarization was measured at Ex/Em 620/688.
Data Analysis: The FP signals were converted into nM product based on an AMP/GMP standard curve and calculated % Enzyme activity relative to DMSO control by Excel. The curve fit was performed using GraphPad prism.

Activity Note: PDE4, +:
CCC(CCOC)Nc1nc(Nc2ccc3c(c2)COB3O)ncc1C(F)(F)F (stereo not shown) [5-((4-((1-methoxypentan-3-yl)amino)-5-(trifluoromethyl)pyrimidin-2-yl)amino)benzo[c][1,2]oxaborol-1(3H)-ol]
Cc1cnc(Nc2ccc3c(c2)COB3O)nc1Nc1ccccc1Cl [5-((4-((2-chlorophenyl)amino)-5-methylpyrimidin-2-yl)amino)benzo[c][1,2]oxaborol-1(3H)-ol]
CCC(C)Nc1nc(Nc2ccc3c(c2)COB3O)ncc1Cl (stereo not shown) [5-((4-(sec-butylamino)-5-chloropyrimidin-2-yl)amino)benzo[c][1,2]oxaborol-1(3H)-ol]
Cc1cnc(Nc2ccc3c(c2)COB3O)nc1NCc1cccc(Cl)c1 [5-((4-((3-chlorobenzyl)amino)-5-methylpyrimidin-2-yl)amino)benzo[c][1,2]oxaborol-1(3H)-ol]
CCCC(CC)Nc1nc(Nc2ccc3c(c2)COB3O)ncc1C (stereo not shown) [5-((4-(hexan-3-ylamino)-5-methylpyrimidin-2-yl)amino)benzo[c][1,2]oxaborol-1(3H)-ol]
CCC(CC)Sc1nc(Nc2ccc3c(c2)COB3O)ncc1C [5-((5-methyl-4-(pentan-3-ylthio)pyrimidin-2-yl)amino)benzo[c][1,2]oxaborol-1(3H)-ol]
Cc1cnc(Nc2ccc3c(c2)COB3O)nc1NC1CCC1 [5-((4-(cyclobutylamino)-5-methylpyrimidin-2-yl)amino)benzo[c][1,2]oxaborol-1(3H)-ol]
CS(=O)(=O)c1nc(Nc2ccc3c(c2)COB3O)ncc1Cl [5-((5-chloro-4-(methylsulfonyl)pyrimidin-2-yl)amino)benzo[c][1,2]oxaborol-1(3H)-ol]
OB1OCc2cc(Nc3ncc(Cl)c(NCc4ccccc4)n3)ccc21 [5-((4-(benzylamino)-5-chloropyrimidin-2-yl)amino)benzo[c][1,2]oxaborol-1(3H)-ol]
CCC(Nc1nc(Nc2ccc3c(c2)COB3O)ncc1C)c1ccccc1 (stereo not shown) [5-((5-methyl-4-((1-phenylpropyl)amino)pyrimidin-2-yl)amino)benzo[c][1,2]oxaborol-1(3H)-ol]
Cc1cnc(Nc2ccc3c(c2)COB3O)nc1NCc1ccc(F)cc1 [5-((4-((4-fluorobenzyl)amino)-5-methylpyrimidin-2-yl)amino)benzo[c][1,2]oxaborol-1(3H)-ol]
CCCC(CC)Nc1nc(Nc2ccc3c(c2)COB3O)ncc1F (stereo not shown) [5-((5-fluoro-4-(hexan-3-ylamino)pyrimidin-2-yl)amino)benzo[c][1,2]oxaborol-1(3H)-ol]
Cc1cnc(Nc2ccc3c(c2)COB3O)nc1Nc1ccccc1 [5-((5-methyl-4-(phenylamino)pyrimidin-2-yl)amino)benzo[c][1,2]oxaborol-1(3H)-ol]
Cc1cnc(Nc2ccc3c(c2)COB3O)nc1NC1CCOC(O)C1 (stereo not shown) [5-((4-((2-hydroxytetrahydro-2H-pyran-4-yl)amino)-5-methylpyrimidin-2-yl)amino)benzo[c][1,2]oxaborol-1(3H)-ol]
Cc1cnc(Nc2ccc3c(c2)COB3O)nc1Nc1ccccc1OC(F)(F)F [5-((5-methyl-4-((2-(trifluoromethoxy)phenyl)amino)pyrimidin-2-yl)amino)benzo[c][1,2]oxaborol-1(3H)-ol]
CCCNc1nc(Nc2ccc3c(c2)COB3O)ncc1C=O [2-((1-hydroxy-1,3-dihydrobenzo[c][1,2]oxaborol-5-yl)amino)-4-(propylamino)pyrimidine-5-carbaldehyde]
OB1OCc2cc(Nc3ncc(C(F)(F)F)c(NC4CCCCC4)n3)ccc21 [5-((4-(cyclohexylamino)-5-(trifluoromethyl)pyrimidin-2-yl)amino)benzo[c][1,2]oxaborol-1(3H)-ol]
CCOC(=O)c1cccc(Nc2nc(Nc3ccc4c(c3)COB4O)ncc2C)c1 [ethyl 3-((2-((1-hydroxy-1,3-dihydrobenzo[c][1,2]oxaborol-5-yl)amino)-5-methylpyrimidin-4-yl)amino)benzoate]
CCC(C)Nc1nc(Nc2ccc3c(c2)COB3O)ncc1F (stereo not shown) [5-((4-(sec-butylamino)-5-fluoropyrimidin-2-yl)amino)benzo[c][1,2]oxaborol-1(3H)-ol]
Cc1cnc(Nc2ccc3c(c2)COB3O)nc1SC1CCCCC1 [5-((4-(cyclohexylthio)-5-methylpyrimidin-2-yl)amino)benzo[c][1,2]oxaborol-1(3H)-ol]
CCCNc1nc(Nc2ccc3c(c2)COB3O)ncc1Cl [5-((5-chloro-4-(propylamino)pyrimidin-2-yl)amino)benzo[c][1,2]oxaborol-1(3H)-ol]
Cc1cnc(Nc2ccc3c(c2)COB3O)nc1NC(CCO)CCO [3-((2-((1-hydroxy-1,3-dihydrobenzo[c][1,2]oxaborol-5-yl)amino)-5-methylpyrimidin-4-yl)amino)pentane-1,5-diol]
CCc1ccccc1Nc1nc(Nc2ccc3c(c2)COB3O)ncc1C [5-((4-((2-ethylphenyl)amino)-5-methylpyrimidin-2-yl)amino)benzo[c][1,2]oxaborol-1(3H)-ol]
CCC(CO)Nc1nc(Nc2ccc3c(c2)COB3O)ncc1Cl (stereo not shown) [5-((5-chloro-4-((1-hydroxybutan-2-yl)amino)pyrimidin-2-yl)amino)benzo[c][1,2]oxaborol-1(3H)-ol]
CCC(C)Nc1nc(Nc2ccc3c(c2)COB3O)ncc1C(F)(F)F (stereo not shown) [5-((4-(sec-butylamino)-5-(trifluoromethyl)pyrimidin-2-yl)amino)benzo[c][1,2]oxaborol-1(3H)-ol]
CCCNc1nc(Nc2ccc3c(c2)COB3O)ncc1C(F)(F)F [5-((4-(propylamino)-5-(trifluoromethyl)pyrimidin-2-yl)amino)benzo[c][1,2]oxaborol-1(3H)-ol]
CCCC(CC)Nc1nc(Nc2ccc3c(c2)COB3O)ncc1C(F)(F)F (stereo not shown) [5-((4-(hexan-3-ylamino)-5-(trifluoromethyl)pyrimidin-2-yl)amino)benzo[c][1,2]oxaborol-1(3H)-ol]
COc1ccccc1Nc1nc(Nc2ccc3c(c2)COB3O)ncc1C [5-((4-((2-methoxyphenyl)amino)-5-methylpyrimidin-2-yl)amino)benzo[c][1,2]oxaborol-1(3H)-ol]
OB1OCc2cc(Nc3ncc(F)c(NC4CCCCC4)n3)ccc21 [5-((4-(cyclohexylamino)-5-fluoropyrimidin-2-yl)amino)benzo[c][1,2]oxaborol-1(3H)-ol]
Cc1cnc(Nc2ccc3c(c2)COB3O)nc1NCCC1CC1 [5-((4-((2-cyclopropylethyl)amino)-5-methylpyrimidin-2-yl)amino)benzo[c][1,2]oxaborol-1(3H)-ol]
Cc1cnc(Nc2ccc3c(c2)COB3O)nc1OC1CCCCC1 [5-((4-(cyclohexyloxy)-5-methylpyrimidin-2-yl)amino)benzo[c][1,2]oxaborol-1(3H)-ol]
OB1OCc2cc(Nc3ncc(Cl)c(NC4CCCCC4)n3)ccc21 [5-((5-chloro-4-(cyclohexylamino)pyrimidin-2-yl)amino)benzo[c][1,2]oxaborol-1(3H)-ol]
Cc1cnc(Nc2ccc3c(c2)COB3O)nc1NC(C)c1ccccc1 (stereo not shown) [5-((5-methyl-4-((1-phenylethyl)amino)pyrimidin-2-yl)amino)benzo[c][1,2]oxaborol-1(3H)-ol]
OB1OCc2cc(Nc3ncc(F)c(NC4CCCC4)n3)ccc21 [5-((4-(cyclopentylamino)-5-fluoropyrimidin-2-yl)amino)benzo[c][1,2]oxaborol-1(3H)-ol]
CSc1nc(Nc2ccc3c(c2)COB3O)ncc1Cl [5-((5-chloro-4-(methylthio)pyrimidin-2-yl)amino)benzo[c][1,2]oxaborol-1(3H)-ol]
OB1OCc2cc(Nc3nccc(NC4CCCC4)n3)ccc21 [5-((4-(cyclopentylamino)pyrimidin-2-yl)amino)benzo[c][1,2]oxaborol-1(3H)-ol]
CCC(CC)Nc1nc(Nc2cc(F)c3c(c2)COB3O)ncc1C [7-fluoro-5-((5-methyl-4-(pentan-3-ylamino)pyrimidin-2-yl)amino)benzo[c][1,2]oxaborol-1(3H)-ol]
